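Each compound was tested at five concentrations against cells in 96-well plates for 48 hours. At the TGI there is no net growth.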
Columns and labels:
Assay in all cases: NCI anticancer screen, dose series, 48 h
786-0 renal = test system: 786-0 renal
A498 renal = test system: A498 renal
A549 NSCLC = test system: A549 NSCLC
ACHN renal = test system: ACHN renal
CAKI-1 renal = test system: CAKI-1 renal
CCRF-CEM leukemia = test system: CCRF-CEM leukemia
COLO 205 colon = test system: COLO 205 colon
DU-145 prostate = test system: DU-145 prostate
EKVX NSCLC = test system: EKVX NSCLC
HCC-2998 colon = test system: HCC-2998 colon
HCT-116 colon = test system: HCT-116 colon
HCT-15 colon = test system: HCT-15 colon
HOP-92 NSCLC = test system: HOP-92 NSCLC
HS 578T breast = test system: HS 578T breast
HT29 colon = test system: HT29 colon
IGROV1 ovarian = test system: IGROV1 ovarian
K-562 leukemia = test system: K-562 leukemia
KM12 colon = test system: KM12 colon
LOX IMVI melanoma = test system: LOX IMVI melanoma
M14 melanoma = test system: M14 melanoma
MCF7 breast = test system: MCF7 breast
MDA-MB-231 breast = test system: MDA-MB-231 breast
MDA-MB-435 = test system: MDA-MB-435
NCI-H226 lung = test system: NCI-H226 lung
NCI-H23 lung = test system: NCI-H23 lung
NCI-H522 lung = test system: NCI-H522 lung
NCI/ADR-RES ovarian = test system: NCI/ADR-RES ovarian
OVCAR-4 ovarian = test system: OVCAR-4 ovarian
OVCAR-5 ovarian = test system: OVCAR-5 ovarian
OVCAR-8 ovarian = test system: OVCAR-8 ovarian
RPMI-8226 leukemia = test system: RPMI-8226 leukemia
RXF 393 renal = test system: RXF 393 renal
SF-268 CNS = test system: SF-268 CNS
SF-295 CNS = test system: SF-295 CNS
SF-539 CNS = test system: SF-539 CNS
SK-MEL-28 melanoma = test system: SK-MEL-28 melanoma
SK-OV-3 ovarian = test system: SK-OV-3 ovarian
SN12C renal = test system: SN12C renal
SNB-19 CNS = test system: SNB-19 CNS
SNB-75 CNS = test system: SNB-75 CNS
SR leukemia = test system: SR leukemia
SW-620 colon = test system: SW-620 colon
T-47D breast = test system: T-47D breast
TK-10 renal = test system: TK-10 renal
U251 CNS = test system: U251 CNS
UACC-257 melanoma = test system: UACC-257 melanoma
UACC-62 melanoma = test system: UACC-62 melanoma
UO-31 renal = test system: UO-31 renal

Measured: TGI

CN(C)c1nc2oc(-c3ccccc3)c(-c3ccccc3)c2c2nncn12
> 100 µM: all assays above
